Results published in PubChem BioAssay AID330 (DTP/NCI, 2004).
Where “and” joins values, the source holds several entries; their conditions need not be identical. Equal values may be shown once. Toxic doses and inconclusive results are not listed. Square brackets hold non-standard residues; d marks the D form. Peptide text beside a SMILES is read from it. ξ: configuration not given here. ξQ = NC(=O)CCC(N)C(=O)O

Test system: P388 leukemia ip, CD2F1 mice, survival T/C
Experiment: NCI In Vivo Anticancer Drug Screen. Data for tumor model P388 Leukemia (intraperitoneal) in CD2F1 (CDF1) mice
Settings: endpoint: median survival time, higher = longer survival
How it was run: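 Mice carrying the transplanted tumor received test compound or vehicle. Survival was recorded in each group, and the value is the treated-group measurement divided by that of the vehicle-treated control group.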

[1] = dose: 50.0 mg/kg/injection, schedule: Q01DX005 (ip), vehicle: Klucel (hydroxypropylcellulose) (HPC)
[2] = dose: 100.0 mg/kg/injection, schedule: Q01DX005 (ip), vehicle: Klucel (hydroxypropylcellulose) (HPC)
[3] = dose: 200.0 mg/kg/injection, schedule: Q01DX005 (ip), vehicle: Klucel (hydroxypropylcellulose) (HPC)
[4] = dose: 200.0 mg/kg/injection, schedule: Q01DX009 (ip), vehicle: saline with Tween-80
[5] = dose: 60.0 mg/kg/injection, schedule: Q01DX005 (ip), vehicle: saline with Tween-80
[6] = dose: 120.0 mg/kg/injection, schedule: Q01DX005 (ip), vehicle: saline with Tween-80
[7] = dose: 240.0 mg/kg/injection, schedule: Q01DX005 (ip), vehicle: saline with Tween-80
[8] = dose: 25.0 mg/kg/injection, schedule: Q01DX009 (ip), vehicle: saline with Tween-80
[9] = dose: 50.0 mg/kg/injection, schedule: Q01DX009 (ip), vehicle: saline with Tween-80
[10] = dose: 100.0 mg/kg/injection, schedule: Q01DX009 (ip), vehicle: saline with Tween-80
[11] = dose: 50.0 mg/kg/injection, schedule: Q01DX009 (ip), vehicle: Klucel (hydroxypropylcellulose) (HPC)
[12] = dose: 100.0 mg/kg/injection, schedule: Q01DX009 (ip), vehicle: Klucel (hydroxypropylcellulose) (HPC)
[13] = dose: 200.0 mg/kg/injection, schedule: Q01DX009 (ip), vehicle: Klucel (hydroxypropylcellulose) (HPC)
[14] = dose: 50.0 mg/kg/injection, schedule: Q01DX005 (ip), vehicle: saline
[15] = dose: 100.0 mg/kg/injection, schedule: Q01DX005 (ip), vehicle: saline

Nc1cc2c(c[n+](CCCCCCCCC[n+]3cc4c5ccccc5c(N)cc4c4ccccc43)c3ccccc23)c2ccccc12
T/C (dose: 0.39 mg/kg/injection, schedule: Q04DX003 (ip), vehicle: other): 150 % of control | T/C (dose: 0.78 mg/kg/injection, schedule: Q04DX003 (ip), vehicle: other): 173 % of control | T/C (dose: 1.56 mg/kg/injection, schedule: Q04DX003 (ip), vehicle: other): 162 % of control | T/C (dose: 3.13 mg/kg/injection, schedule: Q04DX003 (ip), vehicle: other): 173 % of control | T/C (dose: 6.25 mg/kg/injection, schedule: Q04DX003 (ip), vehicle: other): 169 % of control and 191 % of control | T/C (dose: 12.5 mg/kg/injection, schedule: Q04DX003 (ip), vehicle: other): 117 % of control and 95 % of control

O=[N+]([O-])/C=C/c1ccc(Cl)cc1Cl
T/C (dose: 20.0 mg/kg/injection, schedule: Q04DX003 (ip), vehicle: saline with Tween-80): 118 % of control | T/C (dose: 40.0 mg/kg/injection, schedule: Q04DX003 (ip), vehicle: saline with Tween-80): 118 % of control | T/C (dose: 80.0 mg/kg/injection, schedule: Q04DX003 (ip), vehicle: saline with Tween-80): 118 % of control

NC(=O)CCC(N)C(=O)NCC(=O)O (configuration not stated) (H-[ξQ]-Gly-OH)
T/C (dose: 12.5 mg/kg/injection, schedule: Q01DX005 (ip), vehicle: distilled water + Tween-80): 106 % of control | T/C (dose: 25.0 mg/kg/injection, schedule: Q01DX005 (ip), vehicle: distilled water + Tween-80): 109 % of control | T/C (dose: 50.0 mg/kg/injection, schedule: Q01DX005 (ip), vehicle: distilled water + Tween-80): 104 % of control | T/C (dose: 100.0 mg/kg/injection, schedule: Q01DX005 (ip), vehicle: distilled water + Tween-80): 109 % of control | T/C (dose: 200.0 mg/kg/injection, schedule: Q01DX005 (ip), vehicle: distilled water + Tween-80): 113 % of control

O=C(O)C(Cc1cn(Cc2ccccc2)cn1)NCc1ccccc1 (configuration not stated)
T/C [1]: 92 % of control | T/C [2]: 104 % of control | T/C [3]: 95 % of control

CC1(C)OC(=O)C(=Cc2ccc(-c3cc(C(F)(F)F)cc(C(F)(F)F)c3)o2)C(=O)O1
T/C [1]: 104 % of control | T/C [2]: 100 % of control | T/C [3]: 92 % of control

OCC1OC(n2cnc3c(SCc4ccccc4)ncnc32)C(O)C1O (configuration not stated)
T/C (dose: 88.0 mg/kg/injection, schedule: Q01DX009 (ip), vehicle: saline with Tween-80): 100 % of control | T/C (dose: 132.0 mg/kg/injection, schedule: Q01DX009 (ip), vehicle: saline with Tween-80): 95 % of control | T/C [4]: 86 % of control

O=C(O)c1c2ccccc2nc2[nH]c(=O)[nH]c(=O)c12
T/C [1]: 114 % of control and 95 % of control | T/C (dose: 50.0 mg/kg/injection, schedule: Q01DX005 (ip), vehicle: Klucel + Tween-80): 117 % of control | T/C [2]: 107 % of control and 95 % of control | T/C (dose: 100.0 mg/kg/injection, schedule: Q01DX005 (ip), vehicle: Klucel + Tween-80): 107 % of control | T/C [3]: 114 % of control | T/C (dose: 200.0 mg/kg/injection, schedule: Q01DX005 (ip), vehicle: Klucel + Tween-80): 117 % of control

COc1ccccc1OCC(O)CNc1ccc(Cl)cc1C(=O)c1ccccc1 (configuration not stated)
T/C [5]: 103 % of control | T/C [6]: 105 % of control | T/C [7]: 94 % of control

C=C(C(N)=O)C(N)C(=O)O (configuration not stated)
T/C [5]: 120 % of control

O=C(Nc1ccccc1C(F)(F)F)N(CCO)C1CCCCC1
T/C [5]: 103 % of control | T/C [6]: 103 % of control | T/C [7]: 103 % of control

CC(C)NC(=S)NCc1ccc(Cl)c(Cl)c1
T/C (dose: 50.0 mg/kg/injection, schedule: Q01DX009 (ip), vehicle: other): 88 % of control | T/C (dose: 100.0 mg/kg/injection, schedule: Q01DX009 (ip), vehicle: other): 96 % of control

CCNC(=O)C(CCO)NC(=O)OCc1ccccc1 (configuration not stated)
T/C (dose: 12.5 mg/kg/injection, schedule: Q01DX009 (ip), vehicle: distilled water + Tween-80): 118 % of control | T/C (dose: 25.0 mg/kg/injection, schedule: Q01DX009 (ip), vehicle: distilled water + Tween-80): 101 % of control | T/C (dose: 50.0 mg/kg/injection, schedule: Q01DX009 (ip), vehicle: distilled water + Tween-80): 110 % of control

O=C1CNC(=O)N1CN1CCc2ccccc2C1
T/C [1]: 99 % of control | T/C [2]: 105 % of control | T/C [3]: 99 % of control

O=C1OC2C(I)C3CC1C2C3 (configuration not stated)
T/C [8]: 100 % of control | T/C (dose: 25.0 mg/kg/injection, schedule: Q04DX003 (ip), vehicle: saline with Tween-80): 104 % of control | T/C [9]: 110 % of control | T/C (dose: 50.0 mg/kg/injection, schedule: Q04DX003 (ip), vehicle: saline with Tween-80): 104 % of control

CCCCOCC(=O)OC
T/C [9]: 102 % of control | T/C [10]: 102 % of control | T/C [4]: 107 % of control

O=C1Oc2ccccc2CC1C(=O)c1ccc([N+](=O)[O-])cc1 (configuration not stated)
T/C (dose: 50.0 mg/kg/injection, schedule: Q01DX005 (ip), vehicle: saline with Tween-80): 99 % of control | T/C (dose: 100.0 mg/kg/injection, schedule: Q01DX005 (ip), vehicle: saline with Tween-80): 106 % of control | T/C (dose: 200.0 mg/kg/injection, schedule: Q01DX005 (ip), vehicle: saline with Tween-80): 103 % of control

CCOC1N(c2ccccc2)CN(C2CCCCC2)CC1(C)C (configuration not stated)
T/C (dose: 6.25 mg/kg/injection, schedule: Q01DX009 (ip), vehicle: saline with Tween-80): 100 % of control | T/C (dose: 12.5 mg/kg/injection, schedule: Q01DX009 (ip), vehicle: saline with Tween-80): 98 % of control | T/C [8]: 102 % of control

COc1ccc(CCN2C(=O)C(=O)N(c3ccc(C)cc3)C2=O)cc1OC
T/C [11]: 96 % of control | T/C [12]: 97 % of control | T/C [13]: 104 % of control

CNC(C(=O)OC(C)(C)C)C(C)C (configuration not stated)
T/C (dose: 25.0 mg/kg/injection, schedule: Q01DX005 (ip), vehicle: saline): 98 % of control | T/C [14]: 99 % of control | T/C [15]: 99 % of control

O=C1CC(=O)N2C=CC=CC2=N1
T/C (dose: 50.0 mg/kg/injection, schedule: Q01DX009 (ip), vehicle: saline): 101 % of control | T/C (dose: 200.0 mg/kg/injection, schedule: Q01DX009 (ip), vehicle: saline): 91 % of control

COc1ccc(O)c2c1C(=O)C=CC2=O
T/C (dose: 0.4 mg/kg/injection, schedule: Q01DX001 (ip), vehicle: saline with Tween-80): 104 % of control | T/C (dose: 0.8 mg/kg/injection, schedule: Q01DX001 (ip), vehicle: saline with Tween-80): 96 % of control | T/C (dose: 1.56 mg/kg/injection, schedule: Q01DX001 (ip), vehicle: saline with Tween-80): 105 % of control | T/C (dose: 3.13 mg/kg/injection, schedule: Q01DX001 (ip), vehicle: saline with Tween-80): 102 % of control

O=C1CNCC(=O)N1
T/C [14]: 110 % of control | T/C [15]: 99 % of control | T/C (dose: 200.0 mg/kg/injection, schedule: Q01DX005 (ip), vehicle: saline): 100 % of control

CN(C)C(=S)Nc1ccc(S(=O)(=O)N2CCCCC2)cc1
T/C [11]: 105 % of control | T/C [12]: 105 % of control | T/C [13]: 105 % of control | T/C (dose: 400.0 mg/kg/injection, schedule: Q01DX009 (ip), vehicle: Klucel (hydroxypropylcellulose) (HPC)): 101 % of control

c1cc[c]([Pb]([S]c2nc3ccccc3[nH]2)([c]2ccccc2)[c]2ccccc2)cc1
T/C (dose: 0.37 mg/kg/injection, schedule: Q01DX009 (ip), vehicle: Klucel (hydroxypropylcellulose) (HPC)): 102 % of control | T/C (dose: 0.75 mg/kg/injection, schedule: Q01DX009 (ip), vehicle: Klucel (hydroxypropylcellulose) (HPC)): 121 % of control | T/C (dose: 1.5 mg/kg/injection, schedule: Q01DX009 (ip), vehicle: Klucel (hydroxypropylcellulose) (HPC)): 102 % of control | T/C (dose: 3.0 mg/kg/injection, schedule: Q01DX009 (ip), vehicle: Klucel (hydroxypropylcellulose) (HPC)): 100 % of control

CC1=CC(C)(C)N=C2SC(=O)c3cc4c(cc3N12)OCO4
T/C (dose: 100.0 mg/kg/injection, schedule: Q04DX002 (ip), vehicle: saline with Tween-80): 106 % of control | T/C (dose: 200.0 mg/kg/injection, schedule: Q04DX002 (ip), vehicle: saline with Tween-80): 98 % of control | T/C (dose: 400.0 mg/kg/injection, schedule: Q04DX002 (ip), vehicle: saline with Tween-80): 97 % of control

CCCN(CCC)c1ccc(N=Nc2ccccc2C(=O)O)cc1
T/C [9]: 102 % of control | T/C [10]: 105 % of control | T/C [4]: 112 % of control | T/C (dose: 400.0 mg/kg/injection, schedule: Q01DX009 (ip), vehicle: saline with Tween-80): 110 % of control
